Assay results from patent publication US9708287B2, “Chiral compounds, compositions, products and methods employing same” (Cayman Chemical Company Incorporated, priority 2012, dated 2017).

Test system: human skin
Assay: topical administration to a human in need of beautifying
Type: in vivo
Settings: twice daily treatments, after several weeks
Experimental: The chiral, non-racemic analog, (+) deoxyArbutin ((+)-dA), prepared as described in Example I is administered topically to a human in need of beautifying.

## Oc1ccc(OC2CCCCO2)cc1 (racemic) [(+) deoxyArbutin, 4-(tetrahydro-2H-pyran-2-yloxy)phenol]
  health and vitality of the treated areas of the skin: increased health and vitality
  pigmentation of the treated areas of the skin: decreased pigmentation
